AC50, IC50 and EC50 data for five molecules are collected here from ChEMBL document CHEMBL1201862, “PubChem BioAssay data set” (2004).

The nature of test [1]: Luminescence Cell-Based Dose Retest to Confirm Inhibitors of Cancer Stem Cells. [Related pubchem assays (depositor defined):AID2717, AID2721]. Format: functional. The note with it: Homo sapiens.
A short description of test [2]: toxicity toward cultured mammalian cells – cell-based, plate reader, cherry-pick samples, cytotoxicity control, dose response (AID 504397). It is filed as functional.
The target in a further test is T1, CAAX prenyl protease 2 (Saccharomyces cerevisiae S288c, UniProt Q03530).
T1 sequence (Q03530 whole entry): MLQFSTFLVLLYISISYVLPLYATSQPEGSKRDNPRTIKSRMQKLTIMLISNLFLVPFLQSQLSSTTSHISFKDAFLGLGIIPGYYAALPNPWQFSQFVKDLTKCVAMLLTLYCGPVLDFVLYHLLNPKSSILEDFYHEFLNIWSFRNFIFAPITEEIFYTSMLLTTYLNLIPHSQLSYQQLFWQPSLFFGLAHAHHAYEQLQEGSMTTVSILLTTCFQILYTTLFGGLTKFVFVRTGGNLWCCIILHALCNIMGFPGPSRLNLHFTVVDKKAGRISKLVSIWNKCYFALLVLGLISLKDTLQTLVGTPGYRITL
It is filed as biochemical.

Test [3] deals with T2, Runt-related transcription factor 1/Core-binding factor subunit beta (Homo sapiens, UniProt Q01196+Q13951). The test can be described thus: disruptors of Runt domain/CBFb-SMMHC interaction – biochemical, FRET, Cerulean-Runt, Venus-CBFb-SMMHC, uHTS, […] (AID 1434). It is filed as protein assay.
For test [4], the target named is T2, Runt-related transcription factor 1/Core-binding factor subunit beta. The test can be described thus: Runt domain/CBFb-SMMHC interaction disruptors – biochemical, TR-FRET (AID 1438). It is filed as protein assay.
A short description of test [5]: PhoP promoter GFP reporter reduction in Typhimurium – purified and synthesized compounds, set 2, PhoP regulon inhibitor project, dose response (AID 2831). It is filed as functional.
The nature of test [6]: Luminescence Cell-Based Dose Confirmation HTS to Identify Inhibitors of 5'UTR Stem-Loop Driven Alpha-Synuclein mRNA Translation in H4 Neuroglioblastoma Cells. [Related pubchem assays: 1827 (Project Summary), 1813 (Primary HTS)]. Format: functional.
The nature of test [7]: Luminescence Cell-Based Dose Response HTS to Identify Activators of Luciferase Translation or Activity in H4-C Neuroglioblastoma Cells. [Related pubchem assays: 1829 (Project Summary), 1814 (Primary HTS)]. Format: functional.
A short description of test [8]: alpha-synuclein stem-loop luciferase translation blockers – H4 neuroglioma cells, luminescence, confirmation (AID 1988). It is filed as functional, cell-based.
A short description of test [9]: Luminescence Cell-Based Dose Response HTS to Identify Inhibitors of Luciferase Translation or Activity in H4-C Neuroglioblastoma Cells. [Related pubchem assays: 1813 (Primary HTS), 1827 (Project Summary)]. It is filed as functional.
Test [10] is described as follows: Luminescence Cell-Based Dose Retest to Confirm Activators of 5'UTR Stem-Loop Driven Alpha-Synuclein mRNA Translation in H4 Neuroglioblastoma Cells. [Related pubchem assays (depositor defined):AID1813, AID1829]. Format: functional.
A short description of test [11]: Luminescence Cell-Based Dose Response HTS to Identify Activators of 5'UTR Stem-Loop Driven Prion Protein mRNA Translation in H4-C Neuroglioblastoma Cells. [Related pubchem assays: 1829 (Project Summary), 1814 (Primary HTS)]. Format: functional.
A short description of test [12]: luciferase reporter signal suppression in cells – H4 neuroglioma cells, luminescence, dose response (AID 1990). Format: functional, cell-based.
Test [13] is described as follows: Luminescence Cell-Based Dose HTS Response to Identify Inhibitors of 5'UTR Stem-Loop Driven Prion Protein mRNA Translation in H4-C Neuroglioblastoma Cells. [Related pubchem assays (depositor defined):AID1814, AID1827]. Format: functional.
Test [14] can be described thus: Luminescence Cell-Based Dose Response HTS to Identify Inhibitors of 5'UTR Stem-Loop Driven Prion Protein mRNA Translation in H4 Neuroglioblastoma Cells. [Related pubchem assays: 1827 (Project Summary), 1813 (Primary HTS)]. Format: functional.
In test [15] the target is T3, Cannabinoid receptor 1 (Homo sapiens, UniProt P21554). Kind of test: SAR analysis of agonists of the Cannabinoid Receptor 1 using an Image-Based Assay - Set 3. [Related pubchem assays (depositor defined):AID1961, AID1965]. Format: functional.
The target in test [16] is T4, Cannabinoid receptor 2 (Homo sapiens, UniProt P34972). Kind of test: SAR analysis of agonists of the Cannabinoid Receptor 2 using an Image-Based Assay - Set 2. [Related pubchem assays (depositor defined):AID1961, AID1965]. It is filed as functional.
In test [17] the target is T3, Cannabinoid receptor 1. Kind of test: SAR analysis of antagonists of the Cannabinoid Receptor 1 using an Image-Based Assay - Set 3. [Related pubchem assays (depositor defined):AID1961, AID1965]. It is filed as functional.
Test [18] concerns the target T5, G-protein coupled receptor 35 (Homo sapiens, UniProt Q9HC97). The test can be described thus: SAR analysis of Antagonists of the GPR35 Receptor using an Image-Based Assay - Set 4. [Related pubchem assays (depositor defined):[…]]. Format: functional.
The target in test [19] is G-protein coupled receptor 55 (Homo sapiens, UniProt Q9Y2T6). Kind of test: SAR analysis of selective Agonists of GPR55 using an Image-Based Assay - Set 2. [Related pubchem assays (depositor defined):AID1961, AID1965]. It is filed as functional.
The target in test [20] is T4, Cannabinoid receptor 2. Kind of test: SAR analysis of antagonists of the Cannabinoid Receptor 2 using an Image-Based Assay - Set 2. [Related pubchem assays (depositor defined):AID1961, AID1965]. It is filed as functional.
Test [21] has as its target T5, G-protein coupled receptor 35. Kind of test: SAR analysis of Agonists of the GPR35 Receptor using an Image-Based Assay - Set 3. [Related pubchem assays (depositor defined):AID1961, AID1965]. It is filed as functional.

Active and inactive are the calls of the source.

T4 sequence (P34972 whole entry): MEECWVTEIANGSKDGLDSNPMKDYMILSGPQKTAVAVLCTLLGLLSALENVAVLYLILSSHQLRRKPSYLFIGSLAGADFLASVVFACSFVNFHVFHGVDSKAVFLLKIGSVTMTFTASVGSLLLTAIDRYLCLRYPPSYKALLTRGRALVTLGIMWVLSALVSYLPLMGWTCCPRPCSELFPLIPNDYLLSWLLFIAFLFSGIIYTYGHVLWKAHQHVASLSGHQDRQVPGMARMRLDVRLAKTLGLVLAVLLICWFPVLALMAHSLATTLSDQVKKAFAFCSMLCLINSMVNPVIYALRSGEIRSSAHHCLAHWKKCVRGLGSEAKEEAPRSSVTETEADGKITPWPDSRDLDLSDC
T2 sequence (Q01196 whole entry, the tested form may be a part): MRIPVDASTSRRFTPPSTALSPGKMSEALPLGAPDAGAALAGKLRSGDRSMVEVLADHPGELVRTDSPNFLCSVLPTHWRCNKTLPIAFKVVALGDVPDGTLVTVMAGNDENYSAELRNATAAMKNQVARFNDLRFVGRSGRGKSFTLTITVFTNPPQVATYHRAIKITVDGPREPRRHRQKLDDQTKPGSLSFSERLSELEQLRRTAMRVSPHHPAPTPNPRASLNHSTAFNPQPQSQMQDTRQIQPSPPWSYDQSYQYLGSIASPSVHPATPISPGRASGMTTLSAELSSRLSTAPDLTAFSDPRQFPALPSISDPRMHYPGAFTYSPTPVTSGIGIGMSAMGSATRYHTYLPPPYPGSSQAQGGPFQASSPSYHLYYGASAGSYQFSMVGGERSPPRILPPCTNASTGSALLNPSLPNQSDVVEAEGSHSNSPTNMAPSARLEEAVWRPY
T2 sequence (Q13951 whole entry, the tested form may be a part): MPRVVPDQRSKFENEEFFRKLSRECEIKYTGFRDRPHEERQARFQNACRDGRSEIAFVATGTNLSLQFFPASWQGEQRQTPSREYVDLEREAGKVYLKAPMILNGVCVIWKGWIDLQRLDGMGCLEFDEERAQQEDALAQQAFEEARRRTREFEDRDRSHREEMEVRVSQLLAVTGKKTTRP
T5 sequence (Q9HC97 whole entry): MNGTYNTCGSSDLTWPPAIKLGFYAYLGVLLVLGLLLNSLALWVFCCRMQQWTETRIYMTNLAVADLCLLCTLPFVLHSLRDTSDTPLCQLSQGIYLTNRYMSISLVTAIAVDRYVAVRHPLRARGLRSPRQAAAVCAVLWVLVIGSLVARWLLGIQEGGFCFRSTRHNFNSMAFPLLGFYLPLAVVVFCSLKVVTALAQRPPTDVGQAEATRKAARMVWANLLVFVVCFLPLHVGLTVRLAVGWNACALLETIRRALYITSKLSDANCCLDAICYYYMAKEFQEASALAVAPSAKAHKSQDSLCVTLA
T3 sequence (P21554 whole entry): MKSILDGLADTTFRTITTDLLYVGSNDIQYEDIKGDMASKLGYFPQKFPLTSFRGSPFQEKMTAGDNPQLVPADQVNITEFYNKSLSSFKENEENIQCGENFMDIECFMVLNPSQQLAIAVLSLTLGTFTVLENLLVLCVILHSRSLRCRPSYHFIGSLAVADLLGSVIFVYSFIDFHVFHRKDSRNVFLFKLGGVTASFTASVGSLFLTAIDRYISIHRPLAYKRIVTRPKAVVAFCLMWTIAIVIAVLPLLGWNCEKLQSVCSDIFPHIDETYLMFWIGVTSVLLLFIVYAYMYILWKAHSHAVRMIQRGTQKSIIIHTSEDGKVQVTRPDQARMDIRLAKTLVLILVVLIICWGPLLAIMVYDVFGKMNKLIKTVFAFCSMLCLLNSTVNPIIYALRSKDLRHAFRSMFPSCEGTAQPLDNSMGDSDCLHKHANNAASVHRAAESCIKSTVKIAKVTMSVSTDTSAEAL
G-protein coupled receptor 55, sequence (Q9Y2T6 whole entry): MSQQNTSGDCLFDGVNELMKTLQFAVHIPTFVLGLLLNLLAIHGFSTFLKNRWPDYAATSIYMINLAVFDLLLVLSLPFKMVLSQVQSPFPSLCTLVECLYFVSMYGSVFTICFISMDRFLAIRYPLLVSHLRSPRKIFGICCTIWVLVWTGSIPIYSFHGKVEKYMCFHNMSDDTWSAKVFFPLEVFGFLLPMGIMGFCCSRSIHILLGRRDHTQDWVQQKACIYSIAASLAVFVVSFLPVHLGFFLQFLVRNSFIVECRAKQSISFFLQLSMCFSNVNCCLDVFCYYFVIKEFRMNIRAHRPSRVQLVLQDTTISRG

Turning to `Clc1cccc(CN2CCc3c([nH]c4ccccc34)C2)c1Cl`, the values for the AC50 (in [1]; in [2]; on CAAX prenyl protease 2) were 4.83 µM (active), 117 µM (active) and 3.27 µM (active), respectively.
Consider `Cc1ccc(S(=O)(=O)c2c(N)n(Cc3ccco3)c3nc4ccccc4nc23)cc1`, for which the IC50 in [3] and in [4] was > 100 µM (inactive) throughout.
For the molecule `S=C(NCc1ccc(Cl)cc1)Nc1ccc(Cl)cc1`, the IC50 in [5] is > 150 µM (active).
For the molecule `COc1ccc(/C=N/NC(=O)c2cc3c(OC)ccc(OC)c3[nH]2)cc1O`, the EC50 was 2.9 µM (active) in test [6]; 2.51 µM (inconclusive) in test [7]; 0.291 µM (active) in test [8]; 0.747 µM (active) in [9]; 29.5 µM (inconclusive) in test [10]; 0.765 µM (inconclusive) in test [11]. For the same molecule, the EC50 was 9.89 µM (active) in test [12], 1.75 µM (active) in test [13] and 13.3 µM (active) in test [14].
As for `Cc1ccc(Cl)cc1N1CCN(C(=O)c2cc(S(=O)(=O)N(C)C)ccc2N2CCCC2)CC1`, the EC50 was > 32 µM (inactive) on Cannabinoid receptor 1 [15], > 32 µM (inactive) on Cannabinoid receptor 2 [16], 8.84 µM (active) in [19] and > 32 µM (inactive) in [21]. Moreover, the IC50 (at Cannabinoid receptor 1 [17]; in test [18]; at Cannabinoid receptor 2 [20]) was > 32 µM (inactive) each time.
